According to US12145944B2, “Imidazopyrimidines as EED inhibitors and the use thereof” (THE REGENTS OF THE UNIVERSITY OF MICHIGAN, priority 2019, dated 2024):
Read-outs that look alike come from different tables or passages of the source.

Tests used:
[1] = system: KARPAS422 human B cell lymphoma cell; assay: Cell proliferation, KARPAS422, 7 day treatment (WST-8); format: cell-based; details: 7 day treatment, read-out: Karpas Cell line
Description: (§1) “N/A” stands for “not assessed”.
Analysis of Cell Proliferation:
(§2) To assess the effect of PRC2 inhibition on cell growth, cells were seeded in 96-well cell culture plates at a density of 2 000-3 000 cells/well in 200 µL of culture medium, and treated with serially diluted compounds for 7 days at 37° C. in an atmosphere of 5% CO2. Cell growth was evaluated by a […] WST-8 assay (Dojindo Molecular Technologies) using a Tecan Infinite M1000 multimode microplate reader (Tecan, Morrisville, NC). The WST-8 reagent was added to the plate, incubated for 1-4 h, and read at 450 nm. The readings were normalized to the DMSO-treated cells, and the IC50 was calculated by nonlinear regression analysis using GraphPad Prism 6 software

Pfeiffer cell line = assay: Anti-proliferative activity, Pfeiffer cell line, 7 day treatment; format: cell-based; details: Homo sapiens, 168 h, 7 day treatment, read-out: Pfeiffer Cell line
Description: as §1, §2

[2] = Homo sapiens, KARPAS-422, 168 h, anti-proliferative IC50, Karpas 422 cell line
[3] = anti-proliferative IC50, Pfeiffer cell line
[4] = Homo sapiens, KARPAS-422, 168 h, anti-proliferative IC50 class, Karpas 422 cell line
[5] = anti-proliferative IC50 class, Pfeiffer cell line

Row | Compound | IC50 [1, 2] | IC50 (Pfeiffer cell line; [3]) | IC50 [1, 4] | IC50 (Pfeiffer cell line; [5]) | IC50 ([1]; anti-proliferative IC50, Karpas 422 cell line)
1 | O=C1OCc2cc(C(F)(F)F)ccc2-c2cnc(NCc3cccc4c3OCO4)n3cnc1c23 [compound 27, 12-((benzo[d][1,3]dioxol-4-ylmethyl)amino)-7-(trifluoromethyl)-3H,5H-4-oxa-2,11,12a-triazabenzo[4,5]cycloocta[1,2,3-cd]inden-3-one] | > 100 nM | > 100 nM | – | – | –
2 | O=C1Nc2ccccc2-c2cnc(NCc3c(F)ccc4c3CCO4)n3cnc1c23 [Cpd. No. 3, 11-(((5-fluoro-2,3-dihydrobenzofuran-4-yl)methyl)amino)-2,4,10,11a-tetraazadibenzo[cd,f]azulen-3(4H)-one] | – | 84 nM | – | – | –
3 | O=C1c2ncn3c(NCc4c(F)ccc5c4CCO5)ncc(c23)-c2ccc(C(F)(F)F)nc2CN1CC(F)F [E 8, 4-(2,2-difluoroethyl)-12-(((5-fluoro-2,3-dihydrobenzofuran-4-yl)methyl)amino)-7-(trifluoromethyl)-4,5-dihydro-3H-2,4,6,11,12a-pentaazabenzo[4,5]cycloocta[1,2,3-cd]inden-3-one] | – | – | < 10 nM | < 10 nM | –
4 | O=C1OCc2ncccc2-c2cnc(NCc3c(F)ccc4c3CCO4)n3cnc1c23 [Cpd. No. 12, 12-(((5-fluoro-2,3-dihydrobenzofuran-4-yl)methyl)amino)-3H,5H-4-oxa-2,6,11,12a-tetraazabenzo[4,5]cycloocta[1,2,3-cd]inden-3-one] | 3.84 nM | 0.65 nM | – | – | –
5 | O=C1NCc2cc(F)ccc2-c2cnc(NCc3c(F)ccc4c3CCO4)n3cnc1c23 [compound 17, 7-fluoro-12-(((5-fluoro-2,3-dihydrobenzofuran-4-yl)methyl)amino)-4,5-dihydro-3H-2,4,11,12a-tetraazabenzo[4,5]cycloocta[1,2,3-cd]inden-3-one] | 20.5 nM | 4.17 nM | – | – | –
6 | CCc1ccc2c(n1)CN(CC(F)F)C(=O)c1ncn3c(NCc4c(F)ccc5c4CCO5)ncc-2c13 [E 13, 4-(2,2-difluoroethyl)-7-ethyl-12-(((5-fluoro-2,3-dihydrobenzofuran-4-yl)methyl)amino)-4,5-dihydro-3H-2,4,6,11,12a-pentaazabenzo[4,5]cycloocta[1,2,3-cd]inden-3-one] | – | – | < 10 nM | < 10 nM | –
7 | Cc1ccc2c(n1)CN(CC(F)(F)F)C(=O)c1ncn3c(NCc4c(F)ccc5c4CCCO5)ncc-2c13 [E 39, 12-(((6-fluorochroman-5-yl)methyl)amino)-7-methyl-4-(2,2,2-trifluoroethyl)-4,5-dihydro-3H-2,4,6,11,12a-pentaazabenzo[4,5]cycloocta[1,2,3-cd]inden-3-one] | – | – | 10 to 100 nM | < 10 nM | –
8 | CC(C)N1Cc2cc(C#N)ccc2-c2cnc(NCc3c(F)ccc4c3CCO4)n3cnc(c23)C1=O [E 4, 12-(((5-fluoro-2,3-dihydrobenzofuran-4-yl)methyl)amino)-4-isopropyl-3-oxo-4,5-dihydro-3H-2,4,11,12a-tetraazabenzo[4,5]cycloocta[1,2,3-cd]indene-7-carbonitrile] | – | – | < 10 nM | < 10 nM | –
9 | O=C1OCc2cc(C(F)(F)F)ncc2-c2cnc(NCc3c(F)ccc4c3CCO4)n3cnc1c23 [compound 13, 12-(((5-fluoro-2,3-dihydrobenzofuran-4-yl)methyl)amino)-7-(trifluoromethyl)-3H,5H-4-oxa-2,8,11,12a-tetraazabenzo[4,5]cycloocta[1,2,3-cd]inden-3-one] | 9.03 nM | 1.99 nM | – | – | –
10 | O=C1c2ncn3c(NCc4c(F)ccc5c4CCO5)ncc(c23)-c2cnc(C(F)(F)F)cc2CN1CC(F)(F)F [compound 84, 12-(((5-fluoro-2,3-dihydrobenzofuran-4-yl)methyl)amino)-4-(2,2,2-trifluoroethyl)-7-(trifluoromethyl)-4,5-dihydro-3H-2,4,8,11,12a-pentaazabenzo[4,5]cycloocta[1,2,3-cd]inden-3-one] | 1.48 nM | 0.048 nM | – | – | –
11 | CCc1ccc2c(n1)CN(CC(C)(F)F)C(=O)c1ncn3c(NCc4c(F)ccc5c4CCO5)ncc-2c13 [E 16, 4-(2,2-difluoropropyl)-7-ethyl-12-(((5-fluoro-2,3-dihydrobenzofuran-4-yl)methyl)amino)-4,5-dihydro-3H-2,4,6,11,12a-pentaazabenzo[4,5]cycloocta[1,2,3-cd]inden-3-one] | – | – | < 10 nM | < 10 nM | –
12 | O=C1NCc2ccccc2-c2cnc(NCc3c(F)ccc4c3CCO4)n3cnc1c23 [compound 15, 12-(((5-fluoro-2,3-dihydrobenzofuran-4-yl)methyl)amino)-4,5-dihydro-3H-2,4,11,12a-tetraazabenzo[4,5]cycloocta[1,2,3-cd]inden-3-one] | 4.36 nM | 1.25 nM | – | – | –
13 | Cc1ccc2c(n1)CN(C(C)C)C(=O)c1ncn3c(NCc4c(F)ccc5c4CCO5)ncc-2c13 [E 1, 12-(((5-fluoro-2,3-dihydrobenzofuran-4-yl)methyl)amino)-4-isopropyl-7-methyl-4,5-dihydro-3H-2,4,6,11,12a-pentaazabenzo[4,5]cycloocta[1,2,3-cd]inden-3-one] | – | – | < 10 nM | < 10 nM | –
14 | Cc1ccc2c(n1)COC(=O)c1ncn3c(NCc4c(F)ccc5c4CCO5)ncc-2c13 [compound 18, 12-(((5-fluoro-2,3-dihydrobenzofuran-4-yl)methyl)amino)-7-methyl-3H,5H-4-oxa-2,6,11,12a-tetraazabenzo[4,5]cycloocta[1,2,3-cd]inden-3-one] | 15.3 nM | 0.73 nM | – | – | –
15 | Cc1ccc2c(n1)Cc1conc1-c1ncn3c(NCc4c(F)ccc5c4CCO5)ncc-2c13 [E 36, N-((5-fluoro-2,3-dihydrobenzofuran-4-yl)methyl)-8-methyl-6H-4-oxa-2,3,7,12,13a-pentaazabenzo[4,5]cyclopenta[7,8]cycloocta [1,2,3-cd]inden-13-amine] | – | – | 10 to 100 nM | 10 to 100 nM | –
16 | O=C1c2ncn3c(NCc4c(F)ccc5c4CCO5)ncc(c23)-c2ccc(CC3COCCO3)nc2CN1CC(F)(F)F (centres unmarked) [E 49, 7-((1,4-dioxan-2-yl)methyl)-12-(((5-fluoro-2,3-dihydrobenzofuran-4-yl)methyl)amino)-4-(2,2,2-trifluoroethyl)-4,5-dihydro-3H-2,4,6,11,12a-pentaazabenzo[4,5]cycloocta[1,2,3-cd]inden-3-one] | – | – | < 10 nM | < 10 nM | –
17 | O=C1c2ncn3c(NCc4c(F)ccc5c4CCO5)ncc(c23)-c2ccc(C(F)(F)F)cc2CN1CC(F)(F)F [compound 83, 12-(((5-fluoro-2,3-dihydrobenzofuran-4-yl)methyl)amino)-4-(2,2,2-trifluoroethyl)-7-(trifluoromethyl)-4,5-dihydro-3H-2,4,11,12a-tetraazabenzo[4,5]cycloocta[1,2,3-cd]inden-3-one] | 6.32 nM | 0.304 nM | – | – | –
18 | Cc1ccc2c(n1)CN(CC1CC(C)(O)C1)C(=O)c1ncn3c(NCc4c(F)ccc5c4CCO5)ncc-2c13 (centres unmarked) [compound 50, 12-(((5-fluoro-2,3-dihydrobenzofuran-4-yl)methyl)amino)-4-((3-hydroxy-3-methylcyclobutyl)methyl)-7-methyl-4,5-dihydro-3H-2,4,6,11,12a-pentaazabenzo[4,5]cycloocta[1,2,3-cd]inden-3-one] | 0.71 nM | – | – | – | –
19 | O=C1c2ncn3c(NCc4c(F)ccc5c4CCO5)ncc(c23)-c2ccc(F)cc2CN1C1CC1 [compound 64, 4-cyclopropyl-7-fluoro-12-(((5-fluoro-2,3-dihydrobenzofuran-4-yl)methyl)amino)-4,5-dihydro-3H-2,4,11,12a-tetraazabenzo[4,5]cycloocta[1,2,3-cd]inden-3-one] | – | – | – | – | 2.44 nM
